Laboratory results as given in PMC8179393 (Chemical Science, 2021).

Key:
OVCAR8 cells = test: Cellular cisplatin sensitization assay; type: cell-based, human; conditions: OVCAR8, absence of cisplatin, peptide 50 μM or chloroquine 5 μM, 48 h
HEY cells = test: Cellular cisplatin sensitization assay; type: cell-based, human; conditions: absence of cisplatin, peptide 50 μM or chloroquine 5 μM, 48 h

CCN(CC)CCCC(C)Nc1ccnc2cc(Cl)ccc12 (centres unmarked) [chloroquine]
cell viability (MTT), in words (OVCAR8 cells): significantly reduced cell viability
cell viability (MTT), in words (HEY cells): significantly reduced cell viability
